Results reported in patent US20240358693A1, “METHODS OF TREATING PAIN” (Aisa Pharma, Inc., priority 2023, published 2024).

Tested on: participants with SSc-RP
Assay: Average severity of weekly RP attacks (VAS 0-10 cm scale)
Type: in vivo, human
Description: The absolute change in average severity of weekly RP attacks (VAS 0-10 cm scale) from baseline to the end of each Dosing Period was and will be a secondary outcome variable. The sponsor-developed participant-informed diary will be used to record data. Average severity of weekly RP attacks is defined as the total severity scores of RP attacks divided by total number of RP attacks within the last 7 days of each dosing period. Total severity scores of RP attacks during the last 7 days of screening period divided by the total number of RP attacks will be used as baseline for the analysis of all periods. The variable will be calculated similar to frequency data as before.

[1] = Excluding Outliers, Tadalafil 5 mg, second Baseline RCS subgroup block (not named), ITT Part A
[2] = Excluding Outliers, Tadalafil 5 mg, second Baseline RCS subgroup block (not named), ITT Part A, score 0-10
[3] = Tadalafil 5 mg, n=1, Excluding Outliers, ITT Population - Part A
[4] = Tadalafil 5 mg, n=2, ITT Population - Part A
[5] = Tadalafil 5 mg, n=2, by Baseline RCS, second subgroup, ITT Population - Part A
[6] = Tadalafil 5 mg, Excluding Outliers, ITT Population - Part A
[7] = Tadalafil 5 mg, Excluding Outliers, by Baseline RCS, second subgroup, ITT Population - Part A
[8] = Tadalafil 5 mg, ITT Population - Part A
[9] = Tadalafil 5 mg, second Baseline RCS subgroup block (not named), ITT Part A
[10] = Tadalafil 5 mg, second Baseline RCS subgroup block (not named), ITT Part A, score 0-10

## CN1CC(=O)N2[C@H](c3ccc4c(c3)OCO4)c3[nH]c4ccccc4c3C[C@@H]2C1=O [Tadalafil, tadalafil]
[1]
  Average Severity of Weekly RP Attacks (All Attacks), Percent Change from Baseline, Mean: −20.69%
  Average Severity of Weekly RP Attacks (All Attacks), Percent Change from Baseline, Median: −20.69%
[2]
  Average Severity of Weekly RP Attacks (All Attacks), Change from Baseline, Mean: −1.19
  Average Severity of Weekly RP Attacks (All Attacks), Change from Baseline, Median: −1.19
  Average Severity of Weekly RP Attacks (All Attacks), Mean: 4.56
  Average Severity of Weekly RP Attacks (All Attacks), Median: 4.56
[3]
  Average Severity (0-10) of Weekly Symptomatic RP Attacks, Mean: 4.67
  Average Severity (0-10) of Weekly Symptomatic RP Attacks, Median: 4.67
  Average Severity of Weekly Symptomatic RP Attacks, Change from Baseline, Mean: −1.32
  Average Severity of Weekly Symptomatic RP Attacks, Change from Baseline, Median: −1.32
  Average Severity of Weekly Symptomatic RP Attacks, Percent Change from Baseline, Mean: −22.01%
  Average Severity of Weekly Symptomatic RP Attacks, Percent Change from Baseline, Median: −22.01%
[4]
  Average Severity (0-10) of Weekly Symptomatic RP Attacks, Mean: 7.08
  Average Severity (0-10) of Weekly Symptomatic RP Attacks, Median: 7.08
  Average Severity of Weekly Symptomatic RP Attacks, Change from Baseline, Mean: −0.60
  Average Severity of Weekly Symptomatic RP Attacks, Change from Baseline, Median: −0.60
  Average Severity of Weekly Symptomatic RP Attacks, Percent Change from Baseline, Mean: −10.43%
  Average Severity of Weekly Symptomatic RP Attacks, Percent Change from Baseline, Median: −10.43%
[5]
  Average Severity (0-10) of Weekly Symptomatic RP Attacks, Mean: 7.08
  Average Severity (0-10) of Weekly Symptomatic RP Attacks, Median: 7.08
  Average Severity of Weekly Symptomatic RP Attacks, Change from Baseline, Mean: −0.60
  Average Severity of Weekly Symptomatic RP Attacks, Change from Baseline, Median: −0.60
  Average Severity of Weekly Symptomatic RP Attacks, Percent Change from Baseline, Mean: −10.43%
  Average Severity of Weekly Symptomatic RP Attacks, Percent Change from Baseline, Median: −10.43%
[6]
  Average Severity of Weekly RP Attacks (All Attacks), Change from Baseline, Mean: −1.19
  Average Severity of Weekly RP Attacks (All Attacks), Change from Baseline, Median: −1.19
  Average Severity of Weekly RP Attacks (All Attacks), Mean: 4.56
  Average Severity of Weekly RP Attacks (All Attacks), Median: 4.56
  Average Severity of Weekly RP Attacks (All Attacks), Percent Change from Baseline, Mean: −20.69%
  Average Severity of Weekly RP Attacks (All Attacks), Percent Change from Baseline, Median: −20.69%
[7]
  Average Severity of Weekly Symptomatic RP Attacks (Mean): 4.67
  Average Severity of Weekly Symptomatic RP Attacks (Median): 4.67
  Average Severity of Weekly Symptomatic RP Attacks, Change from Baseline, Mean: −1.32
  Average Severity of Weekly Symptomatic RP Attacks, Change from Baseline, Median: −1.32
  Average Severity of Weekly Symptomatic RP Attacks, Percent Change from Baseline, Mean: −22.01%
  Average Severity of Weekly Symptomatic RP Attacks, Percent Change from Baseline, Median: −22.01%
[8]
  Average Severity of Weekly RP Attacks (All Attacks), Change from Baseline, Mean: −0.47
  Average Severity of Weekly RP Attacks (All Attacks), Change from Baseline, Median: −0.47
  Average Severity of Weekly RP Attacks (All Attacks), Mean: 7.02
  Average Severity of Weekly RP Attacks (All Attacks), Median: 7.02
  Average Severity of Weekly RP Attacks (All Attacks), Percent Change from Baseline, Mean: −8.97%
  Average Severity of Weekly RP Attacks (All Attacks), Percent Change from Baseline, Median: −8.97%
[9]
  Average Severity of Weekly RP Attacks (All Attacks), Percent Change from Baseline, Mean: −8.97%
  Average Severity of Weekly RP Attacks (All Attacks), Percent Change from Baseline, Median: −8.97%
[10]
  Average Severity of Weekly RP Attacks (All Attacks), Change from Baseline, Mean: −0.47
  Average Severity of Weekly RP Attacks (All Attacks), Change from Baseline, Median: −0.47
  Average Severity of Weekly RP Attacks (All Attacks), Mean: 7.02
  Average Severity of Weekly RP Attacks (All Attacks), Median: 7.02
More severe disease at baseline (RCS>5.0), n=2 per treatment
  reduction in severity: 6.3%
